The values that follow come from patent US20230364069A1, “METHOD FOR TREATING NON-ALCOHOLIC STEATOHEPATITIS THROUGH CO-ADMINISTRATION OF CURCUMIN DERIVATIVE AND TGF-B RECEPTOR INHIBITOR” (UNIVERSITY INDUSTRY FOUNDATION, YONSEI UNIVERSITY WONJU …, priority 2021, published 2023).

One assay has as its system renal fibrosis model. As to conditions: unilateral ureteral obstruction (UUO); previous studies; cited from earlier work.
Another assay has as its system liver fibrosis model. As to conditions: carbon tetrachloride (CCL4) administration and bile duct ligation; previous studies; cited from earlier work.
Assay [1] deals with C57BL/6 mice in which steatohepatitis was induced with a methionine-choline deficient diet. The experiment in a line: Steatohepatitis animal model (MCD), curcumin 5-8 and low-concentration EW-7197 (5 mg/kg). Format: in vivo, mouse. As to conditions: MCD-fed C57BL/6 mice, 6 weeks; EW-7197 5 mg/kg oral; curcumin 5-8 1 g per 1 kg diet. On the procedure: 8-week-old male C57BL/6 mice weighing 20 to 25 g were purchased from Dae Han Bio Link Co., Ltd. (Chungbuk). […] Mice were fed with a normal diet (Research Diets, RD) and allowed to drink water freely. […] In order to confirm the physiological changes in case of co-administration of a curcumin derivative (Cur5-8) and a TGF-β receptor inhibitor (EW-7197), the liver weights and the concentrations of TG, TC, AST, ALT, and γ-GT in serum were measured. In addition, hydroxyprolin expression was checked as a fibrosis marker in the liver tissues. Specifically, the weights of the liver tissues harvested in Examples 2-1 and 2-2 were measured before storage. […] In order to measure blood glucose, triglyceride, cholesterol, and AST and ALT concentrations, ELISA kit of Asan Pharm. Co., Ltd. was purchased, and the measuring was performed. γ-GT in the liver was measured by using Mak089 of Sigma-Aldrich, and hydroxyproline was measured by using STA-675 ELISA kit of Cell Biolabs, Inc. In addition, the hydroxyprolin expression was checked in the liver tissues harvested in Examples 2-1 and 2-2. In order to check effects of inhibiting fat accumulation in liver tissues and fibrosis in liver tissues in case of co-administration of a curcumin derivative (Cur5-8) and a TGF-β receptor inhibitor (EW-7197), the liver tissues were stained. The liver tissues harvested in Examples 2-1 and 2-2 were fixed with 10% formaldehyde, the formaldehyde was washed out with running water for more than 12 hours, and then washing was performed with 60% ethanol at a one-hour interval, with 70% ethanol at a one-hour interval, and with 100% ethanol at a one-hour interval. Then, the transparency process in xylene was performed three times for one hour each, and the infiltration process in paraffin was performed twice for one hour each. Then, the paraffin block was cut to a thickness of about […] to obtain slices. […] In addition, H&E-stained liver slices were evaluated by using the NAFLD activity score (NAS) system. […]

The next assay concerns lung fibrosis model. As to conditions: bleomycin (BLM); previous studies; cited from earlier work.
Assay [2] relates to LX-2 cells (human hepatic stellate cell lines). The experiment in a line: Fibrosis markers by Western blotting after TGF-β induction, TGF-β receptor inhibitor. Format: cell-based. As to conditions: 2 ng/ml TGF-β, 10 μM EW-7197, 24 hours, FIG. 3. The method, then:
Cell experiments were performed by using AML12, […], and LX-2 cells, a human hepatic stellate cell.
LX-2 cells were cultured in a culture medium made by adding 1% penicillin streptomycin (anti-anti) and 10% fetal bovine serum (FBS) to a DMEM medium containing high glucose (4500 mg/L D-glucose, L-glutamine, 110 mg/L sodium pyruvate, sodium bicarbonate).
Fibrosis was induced in hepatocytes with TGF-β, a TGF-β receptor inhibitor was administered, and fibrosis was checked.
Specifically, 2 ng/ml of TGF-β was administered to the cells of Example 1-1, and administered or not administered with 10 μM EW-7197 (EW), and cultured for 24 hours. The control group (Con) was not treated with either TGF-β or the sample. […] A protein concentration was measured by BCA assay (Pierce Biotechnology Inc). […] Then, the membranes were washed, briefly incubated with Pico Enhanced Peroxidase Detection (EPD) Western reagent (ELPISBIOTECH. INC.) according to the manufacturer's procedure, and quantified by using an image analyzer (ImageQuant™ LAS 500, GE Healthcare Bio-Sciences AB, Uppsala, Sweden). β-actin was used as an internal control. Densitometry of protein intensity was quantified by using ImageJ (National Institutes of Health). […]
For orientation: A western blot detects proteins with antibodies after separation by electrophoresis.

In the case of `Cc1cccc(-c2[nH]c(CNc3ccccc3F)nc2-c2ccc3ncnn3c2)n1` [EW-7197, N-(2-fluorophenyl)-5-(6-methyl-2-pyridinyl)-4-[1,2,4]triazolo[1,5-a]pyridin-6-yl-1H-imidazole-2-methanamine], the “tissue fibrosis (renal)” value in the assay on renal fibrosis model is “suppressing tissue fibrosis”. In addition, the liver damage entry with liver fibrosis model is on record as “suppressing liver damage”. For the same compound, in assay [1], the ALT is 96.1 ± 17.96 IU/L, the AST stood at 159.6 ± 26.73 IU/L and the TG is reported as 28.3 ± 4.84 mg/dL. In the assay with lung fibrosis model, the “tissue fibrosis (lung)” value is on record as “suppressing tissue fibrosis”. The “protein expressions of α-SMA, Coll, p-SMAD2, and p-SMAD3 increased by TGF-β” value in assay [2] is on record as “inhibited”.
